# Source: patent US10906915B2, “Substituted pyrazoloazepin-4-ones and their use as phosphodiesterase inhibitors” (LEO Pharma A/S, priority 2016, dated 2021)
# Target: human PDE4D catalytic domain (UniProt no. Q08499) (Homo sapiens (Human), UniProt Q08499)
# Test: PDE4 assay (TR-FRET, FAM-cAMP cleavage)
# Format: biochemical
# Conditions: read-out: PDE4 IC50 range
# Summary of the method: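 Read-out is time-resolved FRET from Tb donor to FAM-AMP captured on trivalent-metal nanoparticles added to stop the reaction. Substrate was a mix of plain and FAM-labelled cAMP, cleaved by human PDE4D catalytic domain ([…]) with titrated compound; IC50 ranges (nM) versus controls.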
# human PDE4D catalytic domain, sequence (Q08499 380-740 limits assumed): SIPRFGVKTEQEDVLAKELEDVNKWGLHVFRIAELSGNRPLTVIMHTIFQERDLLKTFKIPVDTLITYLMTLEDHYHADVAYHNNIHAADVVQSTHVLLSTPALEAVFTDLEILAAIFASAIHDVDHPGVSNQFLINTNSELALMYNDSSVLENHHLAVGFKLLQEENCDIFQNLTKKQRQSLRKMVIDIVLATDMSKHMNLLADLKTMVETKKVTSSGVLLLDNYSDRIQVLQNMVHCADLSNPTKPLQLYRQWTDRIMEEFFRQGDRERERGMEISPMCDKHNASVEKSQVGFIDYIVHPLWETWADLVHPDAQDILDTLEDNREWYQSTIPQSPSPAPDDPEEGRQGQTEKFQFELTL
row,Compound,IC50 [µM]
1,"CCc1nn(CC(C)(C)COC(=O)c2ccc(S(=O)(=O)C3CCCC3)cc2)c2c1C(=O)NCC1(CCOCC1)C2 [Example 319, [3-(3-ethyl-4-oxo-spiro[6,8-dihydro-5H-pyrazolo[4,3-c]azepine-7,4′-tetrahydropyran]-1-yl)-2,2-dimethyl-propyl] 4-cyclopentylsulfonylbenzoate]",< 0.1
2,"CCc1nn(CC(C)(C)COC(=O)c2cccc(S(=O)(=O)N3CCCC3)c2)c2c1C(=O)NCC1(CCOCC1)C2 [Example 320, [3-(3-ethyl-4-oxo-spiro[6,8-dihydro-5H-pyrazolo[4,3-c]azepine-7,4′-tetrahydropyran]-1-yl)-2,2-dimethyl-propyl] 3-pyrrolidin-1-ylsulfonylbenzoate]",< 0.1
3,"CCc1nn(CC(C)(C)COC(=O)c2ccc(S(=O)(=O)N3CCCC3)cc2)c2c1C(=O)NCC1(CCOCC1)C2 [Example 321, [3-(3-ethyl-4-oxo-spiro[6,8-dihydro-5H-pyrazolo[4,3-c]azepine-7,4′-tetrahydropyran]-1-yl)-2,2-dimethyl-propyl] 4-pyrrolidin-1-ylsulfonylbenzoate]",< 0.1
4,"CCc1nn(CC(C)(C)COC(=O)c2ccc(S(=O)(=O)N3CCOCC3)cc2)c2c1C(=O)NCC1(CCOCC1)C2 [Example 322, [3-(3-ethyl-4-oxo-spiro[6,8-dihydro-5H-pyrazolo[4,3-c]azepine-7,4′-tetrahydropyran]-1-yl)-2,2-dimethyl-propyl] 4-morpholinosulfonylbenzoate]",< 0.1
5,"CCc1nn(CC(C)(C)COC(=O)c2cccc(S(=O)(=O)N3CCOCC3)c2)c2c1C(=O)NCC1(CCOCC1)C2 [Example 323, [3-(3-ethyl-4-oxo-spiro[6,8-dihydro-5H-pyrazolo[4,3-c]azepine-7,4′-tetrahydropyran]-1-yl)-2,2-dimethyl-propyl] 3-morpholinosulfonylbenzoate]",< 0.1
6,"CCc1nn(CC(C)(C)COC(=O)c2ccc(S(=O)(=O)N3CCN(C(C)=O)CC3)cc2)c2c1C(=O)NCC1(CCOCC1)C2 [Example 324, [3-(3-ethyl-4-oxo-spiro[6,8-dihydro-5H-pyrazolo[4,3-c]azepine-7,4′-tetrahydropyran]-1-yl)-2,2-dimethyl-propyl] 4-(4-acetylpiperazin-1-yl)sulfonylbenzoate]",< 0.1
7,"CCc1nn(CC(C)(C)COC(=O)c2cccc(S(=O)(=O)N3CCN(C(C)=O)CC3)c2)c2c1C(=O)NCC1(CCOCC1)C2 [Example 325, [3-(3-ethyl-4-oxo-spiro[6,8-dihydro-5H-pyrazolo[4,3-c]azepine-7,4′-tetrahydropyran]-1-yl)-2,2-dimethyl-propyl] 3-(4-acetylpiperazin-1-yl)sulfonylbenzoate]",< 0.1
8,"CCc1nn(CC(C)(C)COC(=O)c2ccc(C(N)=O)cc2)c2c1C(=O)NCC1(CCOCC1)C2 [Example 328, [3-(3-ethyl-4-oxo-spiro[6,8-dihydro-5H-pyrazolo[4,3-c]azepine-7,4′-tetrahydropyran]-1-yl)-2,2-dimethyl-propyl] 4-carbamoylbenzoate]",< 0.1
9,"CCc1nn(CC(C)(C)COC(=O)c2ccc(C(=O)NC)cc2)c2c1C(=O)NCC1(CCOCC1)C2 [Example 329, [3-(3-ethyl-4-oxo-spiro[6,8-dihydro-5H-pyrazolo[4,3-c]azepine-7,4′-tetrahydropyran]-1-yl)-2,2-dimethyl-propyl] 4-(methylcarbamoyl)benzoate]",< 0.1
10,"CCNC(=O)c1ccc(C(=O)OCC(C)(C)Cn2nc(CC)c3c2CC2(CCOCC2)CNC3=O)cc1 [Example 330, [3-(3-ethyl-4-oxo-Spiro[6,8-dihydro-5H-pyrazolo[4,3-c]azepine-7,4′-tetrahydropyran]-1-yl)-2,2-dimethyl-propyl] 4-(ethylcarbamoyl)benzoate]",< 0.1
11,"CCc1nn(CC(C)(C)COC(=O)c2ccc(C(=O)N(C)C)cc2)c2c1C(=O)NCC1(CCOCC1)C2 [Example 331, [3-(3-ethyl-4-oxo-spiro[6,8-dihydro-5H-pyrazolo[4,3-c]azepine-7,4′-tetrahydropyran]-1-yl)-2,2-dimethyl-propyl] 4-(dimethylcarbamoyl)benzoate]",< 0.1
12,"CCc1nn(CC(C)(C)COC(=O)c2ccc(C(=O)NC(C)C)cc2)c2c1C(=O)NCC1(CCOCC1)C2 [Example 332, [3-(3-ethyl-4-oxo-spiro[6,8-dihydro-5H-pyrazolo[4,3-c]azepme-7,4′-tetrahydropyran]-1-yl)-2,2-dimethyl-propyl] 4-(isopropylcarbamoyl)benzoate]",< 0.1
13,"CCc1nn(CC(C)(C)COC(=O)c2ccc(C(=O)N3CCCC3)cc2)c2c1C(=O)NCC1(CCOCC1)C2 [Example 333, [3-(3-ethyl-4-oxo-spiro[6,8-dihydro-5H-pyrazolo[4,3-c]azepine-7,4′-tetrahydropyran]-1-yl)-2,2-dimethyl-propyl] 4-(pyrrolidine-1-carbonyl)benzoate]",< 0.1
14,"CCc1nn(CC(C)(C)COC(=O)c2ccc(C(=O)N3CCCCC3)cc2)c2c1C(=O)NCC1(CCOCC1)C2 [Example 334, [3-(3-ethyl-4-oxo-spiro[6,8-dihydro-5H-pyrazolo[4,3-c]azepine-7,4′-tetrahydropyran]-1-yl)-2,2 dimethyl-propyl] 4-(piperidine-1-carbonyl)benzoate]",< 0.1
15,"CCc1nn(CC(C)(C)COC(=O)c2ccc(C(=O)N3CCNCC3)cc2)c2c1C(=O)NCC1(CCOCC1)C2 [Example 335, [3-(3-ethyl-4-oxo-spiro[6,8-dihydro-5H-pyrazolo[4,3-c]azepine-7,4′-tetrahydropyran]-1-yl)-2,2-dimethyl-propyl] 4-(piperazine-1-carbonyl)benzoate]",< 0.1
16,"CCc1nn(CC(C)(C)COC(=O)c2ccc(C(=O)N3CCOCC3)cc2)c2c1C(=O)NCC1(CCOCC1)C2 [Example 336, [3-(3-ethyl-4-oxo-spiro[6,8-dihydro-5H-pyrazolo[4,3-c]azepine-7,4′-tetrahydropyran]-1-yl)-2,2-dimethyl-propyl] 4-(morpholine-4-carbonyl)benzoate]",< 0.1
17,"CCc1nn(CC(C)(C)COC(=O)c2ccc(C(=O)N3CCN(C)CC3)cc2)c2c1C(=O)NCC1(CCOCC1)C2 [Example 337, [3-(3-ethyl-4-oxo-spiro[6,8-dihydro-5H-pyrazolo[4,3-c]azepine-7,4′-tetrahydropyran]-1-yl)-2,2-dimethyl-propyl] 4-(4-methylpiperazine-1-carbonyl)benzoate]",< 0.1
18,"CCc1nn(CC(C)(C)COC(=O)c2ccc(C(=O)N3CCN(C(C)=O)CC3)cc2)c2c1C(=O)NCC1(CCOCC1)C2 [Example 338, [3-(3-ethyl-4-oxo-spiro[6,8-dihydro-5H-pyrazolo[4,3-c]azepine-7,4′-tetrahydropyran]-1-yl)-2,2-dimethyl-propyl] 4-(4-acetylpiperazine-1-carbonyl)benzoate]",< 0.1
19,"CCc1nn(CC(C)(C)COC(=O)c2cccc(C(=O)NC)c2)c2c1C(=O)NCC1(CCOCC1)C2 [Example 340, [3-(3-ethyl-4-oxo-spiro[6,8-dihydro-5H-pyrazolo[4,3-c]azepine-7,4′-tetrahydropyran]-1-yl)-2,2-dimethyl-propyl] 3-(methylcarbamoyl)-benzoate]",< 0.1
20,"CCNC(=O)c1cccc(C(=O)OCC(C)(C)Cn2nc(CC)c3c2CC2(CCOCC2)CNC3=O)c1 [Example 341, [3-(3-ethyl-4-oxo-spiro[6,8-dihydro-5H-pyrazolo[4,3-c]azepine-7,4′-tetrahydropyran]-1-yl)-2,2-dimethyl-propyl] 3-(ethylcarbamoyl)-benzoate]",< 0.1
21,"CCc1nn(CC(C)(C)COC(=O)c2cccc(C(=O)N(C)C)c2)c2c1C(=O)NCC1(CCOCC1)C2 [Example 342, [3-(3-ethyl-4-oxo-spiro[6,8-dihydro-5H-pyrazolo[4,3-c]azepine-7,4′-tetrahydropyran]-1-yl)-2,2-dimethyl-propyl] 3-(dimethylcarbamoyl)-benzoate]",< 0.1
22,"CCc1nn(CC(C)(C)COC(=O)c2cccc(C(=O)NC(C)C)c2)c2c1C(=O)NCC1(CCOCC1)C2 [Example 343, [3-(3-ethyl-4-oxo-spiro[6,8-dihydro-5H-pyrazolo[4,3-c]azepine-7,4′-tetrahydropyran]-1-yl)-2,2-dimethyl-propyl] 3-(isopropylcarbamoyl)-benzoate]",< 0.1
23,"CCc1nn(CC(C)(C)COC(=O)c2cccc(C(=O)N3CCCC3)c2)c2c1C(=O)NCC1(CCOCC1)C2 [Example 344, [3-(3-ethyl-4-oxo-Spiro[6,8-dihydro-5H-pyrazolo[4,3-c]azepine-7,4′-tetrahydropyran]-1-yl)-2,2-dimethyl-propyl] 3-(pyrrolidine-1-carbonyl)benzoate]",< 0.1
24,CCc1nn(CC(C)(C)COC(=O)c2cccc(C(=O)N3CCCCC3)c2)c2c1C(=O)NCC1(CCOCC1)C2 [Example 345],< 0.1
25,"CCc1nn(CC(C)(C)COC(=O)c2cccc(C(=O)N3CCNCC3)c2)c2c1C(=O)NCC1(CCOCC1)C2 [Example 346, [3-(3-ethyl-4-oxo-spiro[6,8-dihydro-5H-pyrazolo[4,3-c]azepine-7,4′-tetrahydropyran]-1-yl)-2,2-dimethyl-propyl] 3-(piperazine-1-carbonyl)benzoate]",< 0.1
26,"CCc1nn(CC(C)(C)COC(=O)c2cccc(C(=O)N3CCOCC3)c2)c2c1C(=O)NCC1(CCOCC1)C2 [Example 347, [3-(3-ethyl-4-oxo-spiro[6,8-dihydro-5H-pyrazolo[4,3-c]azepine-7,4′-tetrahydropyran]-1-yl)-2,2-dimethyl-propyl] 3-(morpholine-4-carbonyl)benzoate]",< 0.1
27,"CCc1nn(CC(C)(C)COC(=O)c2cccc(C(=O)N3CCN(C)CC3)c2)c2c1C(=O)NCC1(CCOCC1)C2 [Example 348, [3-(3-ethyl-4-oxo-spiro[6,8-dihydro-5H-pyrazolo[4,3-c]azepine-7,4′-tetrahydropyran]-1-yl)-2,2-dimethyl-propyl] 3-(4-methylpiperazine-1-carbonyl)benzoate]",< 0.1
